Measurements from patent US12655171B2, “Compounds for activating invariant natural killer T-cells and methods of use in eliminating inflammatory senescent cells” (Deciduous Therapeutics, Inc., priority 2021, dated 2026).
Entries after “also recorded” stand apart in the source; their conditions may differ. One block for each compound: values may come before it.

Assays:
human iTCR = experiment: In vitro activation of human iTCR through Jurkat reporter cell line (JiNKT, GFP under NFkB promoter) with drug-loaded BWSTIM cells; type: cell-based; details: BWSTIM loaded 4 hours, co-culture with JiNKT 18 to 24 hours; FIG. 1
Protocol: In order to determine the human iTCR activation potential induced by the compounds described herein, a jurkat cell line (JiNKT) was transfected with the human iTCR, and GFP under the NFkB promoter (cell line licensed from the Medical University of Vienna). A BWS147 cell line (BWSTIM) was also transfected with CD80 and CD1d to act as the antigen-presenting cell.
(§1) DCD molecules or α-GalCer were both dissolved in DMSO at a 5 mg/mL stock solution. BWSTIM cells were loaded with DCD molecules or α-GalCer at varying concentrations for 4 hours at 37° C. at a concentration of 20 k cells/well in 200 μL of media in a u-bottom 96 well dish. BWSTIM cells were washed 2× with media, then incubated with JiNKT cells at a concentration of 80 k cells/well in a u-bottom 96 well dish. Cells were co-cultured for 18 to 24 hours. The percentage of cells expressing high levels of GFP was measured through flow cytometry (after gating out the mCD45+ BWSTIM cells).
(§2) A jurkat cell line (JiNKT) was transfected with the human iTCR, and GFP under the NFkB promoter. A BWS147 cell line (BWSTIM) was also transfected with CD80 and CD1d to act as the antigen-presenting cell. A mouse iNKT hybridoma cell line (DN3.2) was also used as the iNKT. […]
as §1, with “GVK” for “DCD”, “compounds” for “DCD molecules or α-GalCer at varying concentrations”, “for” for “for 18 to”, “cytometry. 1 μg/mL of molecule GVK1a, GVK1b, GVK1c, or GVK1f was incubated with BWSTIM+JiNKT, and compared to α-GalCer.” for “cytometry (after gating out the mCD45+ BWSTIM cells).”

mouse iTCR = experiment: In vitro activation of mouse iTCR, DN3.2 iNKT hybridoma with drug-loaded BWSTIM cells, IL-2 secretion; type: cell-based; details: for IL-2 secretion compared to α-GalCer: drug loaded at 0.01 μg/mL, 48 hours co-culture, FIG. 2
Protocol: In order to determine the mouse iTCR activation potential induced by the compounds described herein, a mouse iNKT hybridoma cell line (DN3.2) from the La Jolla Institute for Allergy and Immunology were used as the iNKT. The BWS147 cell line (BWSTIM) with CD80 and CD1d acted as the antigen-presenting cell.
DCD molecules or α-GalCer were both dissolved in DMSO at a 5 mg/mL stock solution. BWSTIM cells were loaded with DCD molecules or α-GalCer of varying concentrations for 4 hours at 37° C. at a concentration of 20 k cells/well in 200 μL of media in a u-bottom 96 well dish. BWSTIM cells were washed 2× with media, then incubated with DN3.2 cells at a concentration of 80 k cells/well in a u-bottom 96 well dish. Cells were co-cultured for 48 hours. Media was collected and IL-2 was measured using the CisBio HTRF ELISA detection kit.
as §2
GVK molecules or α-GalCer were both dissolved in DMSO at a 5 mg/mL stock solution. BWSTIM cells were loaded with compounds for 4 hours at 37° C. at a concentration of 20 k cells/well in 200 μL of media in a u-bottom 96 well dish. BWSTIM cells were washed 2× with media, then incubated with DN3.2 cells at a concentration of 80 k cells/well in a u-bottom 96 well dish. Cells were co-cultured for 48 hours. Media was collected and IL-2 was measured using the CisBio HTRF ELISA detection kit.

primary human iNKT cells = experiment: Cytokine secretion of primary human iNKT cells co-cultured with drug-loaded BWSTIM cells; type: cell-based; details: BWSTIM loaded with 10 μg/mL; for IFNγ secretion compared to the no-compound control: FIG. 3A; for IL6 secretion compared to the no-compound control: FIG. 3B; for TNFα secretion compared to the no-compound control: FIG. 3C
Protocol: In order to determine the activation profile induced by the compounds described herein, primary human iNKT cells were co-cultured with drug-loaded BWSTIM cells.
Day 0: PBMCs were isolated from human blood using the STEMCELL TECHNOLOGIES™ SepMate™ PBMC isolation system. iNKT cells were then selected using the Miltenyi NKT magnetic cell separation kit.
Day 2: DCD molecules or α-GalCer were both dissolved in DMSO at a 5 mg/mL stock solution. BWSTIM cells were fixed with mitomycin C, then loaded with 10 μg/mL of DCD molecules or α-GalCer for 4 hours at 37° C. at a concentration of 20 k cells/well in 200 μL of media in a u-bottom 96 well dish. Cells were co-cultured with 80 k 6B11+ selected primary human iNKT cells.
D4: Media was collected. Cytokines were measured using the Satorious 4Plex kit on the iQue3 cytometer.
GVK molecules or α-GalCer were both dissolved in DMSO at a 5 mg/mL stock solution. BWSTIM cells were loaded with compounds for 4 hours at 37° C. at a concentration of 20 k cells/well in 200 μL of media in a u-bottom 96 well dish. Cells were co-cultured with 100 k 6B11+ selected primary human iNKT cells. Media was collected 2 days later. Cytokines were measured using the Satorious 4Plex kit on the iQue3 cytometer.

iNKT cells [1] = experiment: Diet induced obesity (HFD) mouse model: iNKT cell expansion in spleen or eWAT; type: in vivo, C57BL/6J mice; details: HFD mice, I.P. 2 g, four days post-injection
Protocol: (§3) Senescence is a feature of pre-adipocytes in obese individuals. To study the efficacy of the molecules described herein in decreasing senescence in fat, a diet induced obesity high fat diet (HFD) mouse model was used. 22-week-old HFD mice were injected with α-GalCer as a control and compared with the compounds of the present disclosure. The blood and spleen (or adipose tissue) were collected to measure iNKT activation and expansion, respectively. Cells in the eWAT (adipose tissue) were also collected and measured for % senescent cells. HFD mice were compared to non-HFD (normal diet) mice.
(§4) 22-week-old C57BL/6J mice on a chow or high-fat diet (HFD) were injected (I.P) with […] of α-GalCer, compound DCD-101 or compound DCD-154. Molecules were either dissolved in DMSO at a 5 mg/mL stock solution, or formulated into liposomes through thin-film rehydration, then extrusion through 200 nm filters. Liposome-based formulations were constructed using soy phosphatidylcholine, cholesterol, and DCD or α-GalCer in a 2:1:0.15 ratio. Two or twenty hours post-injection, blood was collected from the tail to measure the level of IFNγ using ELISA. Four days post-injection, mice were sacrificed to collect eWAT or spleen. Spleen was used to measure the number of iNKT cells, and eWAT was used to measure the number of iNKT cells and senescent cells using flow cytometry. iNKT cells were identified in the digested adipose tissue by gating live cells and mouse CD1d-α-GalCer tetramer+ cells. Senescent cells were measured withing the processes adipose tissue by selecting mCD45− cells, and C12FDG^HIGH cells.

IFNγ = experiment: Diet induced obesity (HFD) mouse model: serum IFNγ (ELISA); type: in vivo, C57BL/6J mice; details: for secretion of IFNγ in the HFD mouse model: between two and twenty hours post-treatment
Protocol: as §3, §4

senescent cells in eWAT = experiment: Diet induced obesity (HFD) mouse model: senescent cells (C12FDG+) in eWAT; type: in vivo, C57BL/6J mice; details: HFD mice, four days post-injection; FIG. 5E
Protocol: as §3, §4

serum IFNγ = experiment: In vivo serum IFNγ (ELISA) in C57BL/6J mice; details: 2 μg I.P.; twenty hours post-injection; FIG. 4A
Protocol: (§5) In order to determine the expansion induced by the molecules described herein, molecules were injected into C57BL/6J mice. Serum IFNγ levels and the expansion of iNKT cells within splenocytes was measured 4 days post-IP injection.
(§6) Eight weeks old C57BL/6J mice were injected (I.P.) with 2 μg of α-GalCer or DCD molecules. Molecules were either dissolved in DMSO at a 5 mg/mL stock solution, or formulated into liposomes through thin-film rehydration, then extrusion through 200 nm filters. Liposome-based formulations were constructed using soy phosphatidylcholine, cholesterol, and DCD or α-GalCer in a 2:1:0.15 ratio. Twenty hours post-injection, blood was collected from the tail to measure the level of serum IFNγ using an ELISA kit from Biolegend. Four days post-injection, the mice were sacrificed and the spleenocytes were isolated. The percentage of iNKT cells within the spleens was measured using flow cytometry, selecting for live cells and mouse CD1d-α-GalCer tetramer+ cells.

iNKT cells [2] = experiment: In vivo iNKT cell expansion in spleen of C57BL/6J mice (flow cytometry); details: 2 μg I.P.; four days post-injection; FIG. 4B
Protocol: as §5, §6

Structure (SMILES): CCCCCCCCCCCCCC[C@@H](O)[C@@H](O)[C@H](COC1OC(CO)C(O)C(O)C1O)NC(=O)CCCCCCCCCCC12CC(F)(C1)C2 (stereo partly shown) [DCD-101]
EC50 of the dose response based on percentage GFP+ cells, compared to α-GalCer (human iTCR): lower EC50s compared to α-GalCer
IL-2 secretion compared to α-GalCer (mouse iTCR): greater IL-2 secretion than α-GalCer
IL-2 secretion (mouse iTCR; ranking among tested compounds, at the lowest concentrations): highest IL-2 secretion at the lowest concentrations
IFNγ secretion compared to the no-compound control (primary human iNKT cells): significantly higher levels
IL6 secretion compared to the no-compound control (primary human iNKT cells): significantly higher levels
TNFα secretion compared to the no-compound control (primary human iNKT cells): significantly higher levels
expansion of immune (iNKT) cells in HFD mouse spleen (iNKT cells [1]; FIG. 5A): caused expansion of immune cells in HFD mouse spleen; also recorded: expand iNKT cells
secretion of IFNγ in the HFD mouse model (IFNγ): induce secretion of IFNγ
levels of serum IFNγ in the HFD model (IFNγ; two hours post injection, FIG. 5C): significantly increased levels of IFNγ
accumulation of senescent cells (C12FDG+) in eWAT (senescent cells in eWAT): effective in decreasing the accumulation of senescent cells in eWAT; also recorded: Senescent cell reduction in adipose tissue is observed

Structure (SMILES): CCCCCCCCCCCCCC[C@@H](O)[C@@H](O)[C@H](COC1OC(CO)C(O)C(O)C1O)NC(=O)CCCCCCCCCCC12CC(CCCCCCCCCCCCC)(C1)C2 (stereo partly shown) [DCD-154]
average serum IFNγ compared to α-GalCer (serum IFNγ): higher than the average serum IFNγ of C57BL/6J mice treated with α-GalCer
average iNKT cell isolated from the spleen compared to α-GalCer (iNKT cells [2]): higher than mice treated with α-GalCer
expansion of immune (iNKT) cells in HFD mouse eWAT (iNKT cells [1]; percent iNKT cells of live cells, FIG. 5B): caused expansion of immune cells in HFD mouse eWAT; also recorded: expand iNKT cells
secretion of IFNγ in the HFD mouse model (IFNγ): induce secretion of IFNγ
levels of IFNγ in the HFD model (IFNγ; twenty hours post injection, FIG. 5D): significantly increased levels of IFNγ
accumulation of senescent cells (C12FDG+) in eWAT (senescent cells in eWAT): effective in decreasing the accumulation of senescent cells in eWAT; also recorded: Senescent cell reduction in adipose tissue is observed

Structure (SMILES): CCCCCCCCCCCCCCCCC[Si](C)(C)CCCCCCCC(=O)N[C@@H](COC1OC(CO)C(O)C(O)C1O)[C@H](O)[C@H](O)CCCCCCCCCCCCCC (stereo partly shown) [DCD-157]
EC50 of the dose response based on percentage GFP+ cells, compared to α-GalCer (human iTCR): lower EC50s compared to α-GalCer
average serum IFNγ compared to α-GalCer (serum IFNγ): higher than the average serum IFNγ of C57BL/6J mice treated with α-GalCer

Structure (SMILES): CCCCCCCCCCCCCC[C@@H](O)[C@@H](O)[C@H](COC1OC(CO)C(O)C(O)C1O)NC(=O)CCCCCCCCCCC12CCC(CC1)CC2 (stereo partly shown) [DCD-102]
IL-2 secretion compared to α-GalCer (mouse iTCR): greater IL-2 secretion than α-GalCer

Structure (SMILES): CCCCCCCCCCCCCC[C@@H](O)[C@@H](O)[C@H](COC1OC(CO)C(O)C(O)C1O)NC(=O)CCCCCCCCCCC1CC1C (stereo partly shown) [DCD-106]
EC50 of the dose response based on percentage GFP+ cells, compared to α-GalCer (human iTCR): lower EC50s compared to α-GalCer
IL-2 secretion compared to α-GalCer (mouse iTCR): greater IL-2 secretion than α-GalCer
IFNγ secretion compared to the no-compound control (primary human iNKT cells): significantly higher levels
IL6 secretion compared to the no-compound control (primary human iNKT cells): significantly higher levels
TNFα secretion compared to the no-compound control (primary human iNKT cells): significantly higher levels

The next lines start with results.

EC50 of the dose response based on percentage GFP+ cells, compared to α-GalCer (human iTCR): lower EC50s compared to α-GalCer
Structure (SMILES): CCCCCCCCCCCCCC[C@@H](O)[C@@H](O)[C@H](COC1OC(CO)C(O)C(O)C1O)NC(=O)CCCCCCCCCCCCCCCCCCCCCCCCC12CC(F)(C1)C2 (stereo partly shown) [DCD-156]
average serum IFNγ compared to α-GalCer (serum IFNγ): higher than the average serum IFNγ of C57BL/6J mice treated with α-GalCer

EC50 of the dose response based on percentage GFP+ cells, compared to α-GalCer (human iTCR): lower EC50s compared to α-GalCer
Structure (SMILES): CCCCCCCCCCCCCC[C@@H](O)[C@@H](O)[C@H](COC1OC(CO)C(O)C(O)C1O)NC(=O)CCCCCCCCCCCCCCCCCCCCCCCC12CC(F)(C1)C2 (stereo partly shown) [DCD-155]
average serum IFNγ compared to α-GalCer (serum IFNγ): higher than the average serum IFNγ of C57BL/6J mice treated with α-GalCer

EC50 of the dose response based on percentage GFP+ cells, compared to α-GalCer (human iTCR): lower EC50s compared to α-GalCer
Structure (SMILES): CCCCCCCCCCCCCC[C@@H](O)[C@@H](O)[C@H](COC1OC(CO)C(O)C(O)C1O)NC(=O)CCCCCCCCCCCCCCCCCCCCCCCC1COC1 (stereo partly shown) [DCD-153]
average serum IFNγ compared to α-GalCer (serum IFNγ): higher than the average serum IFNγ of C57BL/6J mice treated with α-GalCer
average iNKT cell isolated from the spleen compared to α-GalCer (iNKT cells [2]): higher than mice treated with α-GalCer
